# Results as given in US20250108038A1 (priority 2023, published 2025).
# Values joined by “and” are separate entries in the source; they are usually repeats but may differ in a detail not shown here. Equal entries are not always repeated.
# Experiment: in vivo
# Details: for plasma concentration of Compound A: after Compound I-19 single PO 6.645 mg/kg
# Experimental: Dose solutions were prepared freshly on each day of studies prior to dosing.
# The animals were weighed immediately prior to dosing and the dose volume was calculated individually based the obtained body weight and the nominal dose volume. […] The nominal dose volume was 10 mL/kg in both studies.
# Cage side observation was performed before and after dosing as well as at each scheduled sample collection time. The observation included appearance, posture, behavior, morbidity and mortality. Abnormal findings, if any, are required to be recorded in the study record and communicated with study director, veterinarian, and Supernus if necessary.
# Approximately 40 μL blood was collected at each scheduled time point from saphenous veins. The actual sample collection time was within 1 min. of the nominal time for collections prior to or at 1 hour, and within 5% of the nominal values for collections post 1 hour.
# The blood samples were placed in pre-labeled micro-centrifuge tubes containing K2EDTA as anticoagulant and kept on ice before they were processed to plasma within 30 minutes of collection by centrifugation at 4° C., 3000 g for 5 minutes. The plasma samples were stored at −70±10° C. until LC-MS/MS analysis.
# Plasma concentrations below the LLOQ prior to Tmax were set to zero, and those after Tmax were excluded from PK calculation. The nominal dose and the nominal sample collection time were used for the calculation. The values of plasma concentrations and PK parameters are reported to three significant figures. The average values of each treatment group are presented as mean±SD.
# [1] = after Compound I-19 IP 4.061 mg/kg, average
# [2] = after Compound I-19 IP 4.061 mg/kg, mean±SD
# [3] = after Compound I-19 PO 6.645 mg/kg, mean±SD
# [4] = single IP Compound I-19 4.061 mg/kg, male CD-1 mice, individual animals
# [5] = single IP Compound I-19 4.061 mg/kg, male CD-1 mice, mean
# [6] = single PO Compound I-19 6.645 mg/kg, male CD-1 mice, individual animals
smiles,measurement,setting,value
Clc1ccc(C2(OCC3OCCO3)c3ccccc3C3=NCCN32)cc1 (stereo not drawn) [Compound I-19],AUC0-last of Compound I-19,"IP 4.061 mg/kg, mean±SD",482 ± 92.9 ng·h/mL
same,Cmax of Compound I-19,"IP 4.061 mg/kg, mean±SD",373 ± 101 ng/mL
same,MRT0-last of Compound I-19,"IP 4.061 mg/kg, mean±SD",69 ± 24.4 min
same,T1/2 of Compound I-19,"IP 4.061 mg/kg, mean±SD",37.9 ± 16.2 min
same,Tmax of Compound I-19,"IP 4.061 mg/kg, mean±SD",25 ± 8.64 min
same,AUC0-last of Compound I-19,"PO 6.645 mg/kg, mean±SD",2.04 ± 2.56 ng·h/mL
same,Cmax of Compound I-19,"PO 6.645 mg/kg, mean±SD",4.27 ± 3.1 ng/mL
same,MRT0-last of Compound I-19,"PO 6.645 mg/kg, mean±SD",21.9 ± 7.56 min
same,Tmax of Compound I-19,"PO 6.645 mg/kg, mean±SD",20 ± 8.64 min
same,MRT0-last of Compound B,[1],186 min
same,T1/2 of Compound B,[1],220 min
same,Tmax of Compound B,[1],120 min
same,AUC0-last of Compound A,[2],104 ± 36.7 ng·h/mL
same,AUC0-last of Compound B,[2],120 ± 58.1 ng·h/mL
same,Cmax of Compound A,[2],50.5 ± 20 ng/mL
same,Cmax of Compound B,[2],30.7 ± 5.42 ng/mL
same,MRT0-last of Compound A,[2],106 ± 27.2 min
same,T1/2 of Compound A,[2],75 ± 18.8 min
same,Tmax of Compound A,[2],40 ± 17.3 min
same,AUC0-last of Compound A,[3],203 ± 45.2 ng·h/mL
same,Cmax of Compound A,[3],158 ± 27.2 ng/mL
same,MRT0-last of Compound A,[3],71.4 ± 4.14 min
same,T1/2 of Compound A,[3],51.3 ± 10.4 min
same,Tmax of Compound A,[3],20 ± 8.64 min
same,plasma concentration of Compound A,"0.500 h, mean",126 ng/mL
same,plasma concentration of Compound A,"1.00 h, individual mice, 6.645 mg/kg",123 ng/mL and 54.4 ng/mL and 83.2 ng/mL
same,plasma concentration of Compound A,"1.00 h, mean",86.9 ng/mL
same,plasma concentration of Compound A,"2.00 h, individual mice, 6.645 mg/kg",44.1 ng/mL and 31.3 ng/mL and 36.7 ng/mL
same,plasma concentration of Compound A,"2.00 h, mean",37.4 ng/mL
same,plasma concentration of Compound A,"4.00 h, individual mice, 6.645 mg/kg",5.24 ng/mL and 6.75 ng/mL and 8.65 ng/mL
same,plasma concentration of Compound A,"4.00 h, mean",6.88 ng/mL
same,plasma concentration of Compound A,"8.00 h, individual mice",BQL
same,plasma concentration of Compound A,"24.0 h, individual mice",BQL
same,Clinical observation (tolerability),"male CD-1 mice, administered dosages (Compound A PO 5.102 mg/kg; Compound I-19 PO 6.645, IP 4.061 mg/kg)",well tolerated
same,plasma concentration of Compound I-19,"single IP 4.061 mg/kg, 0.500 h, individual mice, 4.061 mg/kg",415 ng/mL and 311 ng/mL and 318 ng/mL
same,plasma concentration of Compound I-19,"single IP 4.061 mg/kg, 0.500 h, mean",348 ng/mL
same,plasma concentration of Compound I-19,"single IP 4.061 mg/kg, 1.00 h, individual mice, 4.061 mg/kg",196 ng/mL and 269 ng/mL and 201 ng/mL
same,plasma concentration of Compound I-19,"single IP 4.061 mg/kg, 1.00 h, mean",222 ng/mL
same,plasma concentration of Compound I-19,"single IP 4.061 mg/kg, 2.00 h, individual mice, 4.061 mg/kg",39.7 ng/mL and 100 ng/mL and 71.6 ng/mL
same,plasma concentration of Compound I-19,"single IP 4.061 mg/kg, 2.00 h, mean",70.4 ng/mL
same,plasma concentration of Compound I-19,"single IP 4.061 mg/kg, 4.00 h, mean",13.1 ng/mL
same,plasma concentration of Compound I-19,"single IP 4.061 mg/kg, 8.00 h, individual mice",1.39 ng/mL
same,plasma concentration of Compound I-19,"single IP 4.061 mg/kg, 8.00 h, individual mice, 4.061 mg/kg",BQL
same,plasma concentration of Compound I-19,"single IP 4.061 mg/kg, 24.0 h, individual mice",BQL
same,AUC0-inf of Compound I-19,[4],444 ng·h/mL and 589 ng·h/mL and 417 ng·h/mL
same,AUC0-last of Compound I-19,[4],443 ng·h/mL and 588 ng·h/mL and 414 ng·h/mL
same,Cmax of Compound I-19,[4],489 ng/mL and 311 ng/mL and 318 ng/mL
same,MRT0-inf of Compound I-19,[4],49.6 min and 97.2 min and 62.4 min
same,MRT0-last of Compound I-19,[4],48.9 min and 96 min and 61.2 min
same,T1/2 of Compound I-19,[4],27.1 min and 56.5 min and 29.9 min
same,Tlast of Compound I-19,[4],4.00 h (2×) and 8.00 h
same,Tmax of Compound I-19,[4],30 min
same,AUC0-inf of Compound I-19,[5],483 ng·h/mL
same,AUC0-last of Compound I-19,[5],482 ng·h/mL
same,Cmax of Compound I-19,[5],373 ng/mL
same,MRT0-inf of Compound I-19,[5],69.6 min
same,MRT0-last of Compound I-19,[5],69 min
same,T1/2 of Compound I-19,[5],37.9 min
same,Tlast of Compound I-19,[5],5.33 h
same,Tmax of Compound I-19,[5],25 min
same,plasma concentration of Compound I-19,"single PO 6.654 mg/kg (as titled), 0.500 h, mean",4.55 ng/mL
same,plasma concentration of Compound I-19,"single PO 6.654 mg/kg (as titled), 2.00 h, individual mice",BQL
same,plasma concentration of Compound I-19,"single PO 6.654 mg/kg (as titled), 4.00 h, individual mice",BQL
same,plasma concentration of Compound I-19,"single PO 6.654 mg/kg (as titled), 8.00 h, individual mice",BQL
same,plasma concentration of Compound I-19,"single PO 6.654 mg/kg (as titled), 24.0 h, individual mice",BQL
same,plasma concentration of Compound I-19,"single PO 6.654 mg/kg (as titled), […] h, individual mice",2.78 ng/mL
same,plasma concentration of Compound I-19,"single PO 6.654 mg/kg (as titled), […] h, individual mice, 6.654 mg/kg",BQL
same,AUC0-inf of Compound I-19,[6],6.92 ng·h/mL
same,MRT0-inf of Compound I-19,[6],50.2 min
same,MRT0-last of Compound I-19,[6],20.8 min and 15 min and 29.9 min
same,T1/2 of Compound I-19,[6],29.1 min
same,Tmax of Compound I-19,[6],30 min
